Patent publication US10604473B2, “Lipids that increase insulin sensitivity and methods of using the same” (Beth Israel Deaconess Medical Center, Inc., priority 2013, dated 2020)

What was measured:
isolated rat islets = test: Insulin release in isolated rat islets; assay type: cell-based; settings: 25 mM glucose in the media
Experimental: Ins1 cells (FIG. 21) or primary rat islet cells (FIG. 22) were seeded in 24 well-plates [˜10^6 cells/well]. At confluence, cells were incubated with Low Serum [2.5%] and Low Glucose [2.5 mM] media for 12 hours. Next, cells were incubated with KRB buffer for 1 h and stimulated with glucose in the presence of 5-PAHSA (FIG. 21) or 9-PAHSA (FIG. 21) for 45 min in KRB. At the end of the stimulation, 100 μL of media was collected and 10 μL was used to quantitate the amount of insulin released by ELISA. Treatment Conditions for FIGS. 21 and 22 were: • 5-PAHSA or 9-PAHSA [Stock]=20.0 mM [10.76 mg/mL Methanol] • A] 1 uM=0.3 uL/6 mL [Amount of methanol/mL=0.05 uL] • B] 5 uM=1.5 uL/6 mL [Amount of methanol/mL=0.25 uL] • C] 10 uM=3.0 uL/6 mL [Amount of methanol/mL=0.50 uL] • D] 20 uM=6.0 uL/6 mL [Amount of methanol/mL=1.00 uL] […]
Isolated rat islets were cultured overnight in RPMI 1640 medium containing 2.5 mM glucose and 2.5% fetal bovine serum supplemented with 100 IU/ml penicillin and 100 IU/ml streptomycin, 1 mM sodium pyruvate, and 10 mM HEPES (pH 7.4). […] At the end of the stimulation supernatant was collected and insulin released into the medium was quantified by ELISA as per manufacturer's protocol. The islets were lysed and protein content was measured and the amount of insulin released into the media was quantitated as ng/mL/μg of protein.

Human islets = test: Glucose-stimulated insulin secretion in primary human islets; assay type: cell-based
Experimental: Two human donors provided cells used in these studies. Donor1 was a person, 5′0″, 157 lbs, with a BMI of 30.5, HbA1C was 5.8, who died from a stroke, but it was witnessed and they had no downtime. Islets were 80% pure and 95% viable. After arrival, islets were incubated overnight in human islet media before stimulation with glucose in presence and absence of 5-PAHSA (lipid A-5). Note 1 IU of Human Insulin=6 nmol=34.8 μg Insulin.
Human islets were divided into ten groups [100 islets per condition]
A] Low glucose [2.5 mM]; B] High glucose [20.0 mM]; C] Low glucose [2.5 mM]+2.5 μL/mL Methanol; D] High glucose [20.0 mM]+2.5 μL/mL Methanol; E] Low glucose+20 μM Lipid A-5; F] High glucose+20 μM Lipid A-5; G] Low glucose+50 μM Lipid A-5; H] High glucose+50 μM Lipid A-5.
Islets were cultured overnight in Human Islet media and next day incubated with KRB buffer for 4 h prior to glucose stimulation.
Following KRB incubation, islets were stimulated with glucose [2.5 mM & 20.0 mM] in the presence and absence of Lipid A-5 [20 & 50 μM] for 45 min
At the end of glucose stimulation the amount of insulin released [μ IU/mL] into the media was measured using Human Insulin ELISA kit. And the insulin content from the islets were extracted to express insulin released into the media as μ IU/mL/islet content.
Donor 2 was a person, 183 cm, 176 lbs, with a BMI of 23.9, HbA1C was 5.0, died from a stroke, but it was witnessed and they had no downtime. Islets were 85% pure and 95% viable. After arrival, islets were incubated overnight in human islet media before stimulation with glucose in presence and absence of 5-PAHSA (Lipid A-5).
Human islets were divided into […] [75 islets per condition]: A] Low glucose [2.5 mM]; B] High glucose [20.0 mM]; C] Low glucose [2.5 mM]+2.5 μL/mL Methanol; D] High glucose [20.0 mM]+2.5 μL/mL Methanol; E] Low glucose+20 μM Lipid A-5; F] High glucose+20 μM Lipid A-5.
Following KRB incubation, islets were stimulated with glucose [2.5 mM & 20.0 mM] in the presence and absence of Lipid A-5 [20 μM] for 45 min.

[1] = Serum 5-PAHSA after oral administration; assay type: in vivo, mouse; settings: oral gavage
Experimental: FIG. 56 is a bar graph showing serum 5-PAHSA levels after oral administration of synthesized 5-PAHSA. 3 h after food removal, mice were gavaged with 30 mg/kg body weight (chow-fed) or 45 mg/kg body weight (HFD-fed) of 5-PAHSA. 5 h post gavage, blood was collected via tail vein and serum 5-PAHSA was analyzed by mass spectrometry. n=3 mice per group. Data are expressed as mean±s.e.m. *p<0.05 vs. vehicle treated on the same diet; and δp<0.05 vs. chow vehicle.

[2] = FAHFA hydrolysis assay (9-PAHSA to 9-HSA), liver lysate; settings: liver lysate 1 mg/ml protein, 100 μM, 37° C., two hours
Experimental: To establish whether or not FAHFA can be enzymatically degraded, an LC-MS-based in vitro activity assay was developed to measure the hydrolysis of 9-PAHSA to 9-HSA. […] Liver lysate (1 mg/ml protein) was incubated with 100 μM 9-PAHSA at 37° C. for two hours. The reaction mixture was then extracted with one volume ethyl acetate, concentrated under nitrogen gas stream, and reconstituted in 1:1 chloroform:methanol for MS analysis.

Compound | glucose-stimulated insulin secretion (isolated rat islets) | insulin secretion (Human islets; 2.5 mM glucose, 5-PAHSA 20 μM) | insulin secretion response (Human islets; 20 mM glucose, 5-PAHSA 20 μM) | Glucose Stimulated Insulin Secretion (Human islets; Donor 1) | Glucose Stimulated Insulin Secretion (Human islets; Donor 2) | serum 5-PAHSA levels versus chow baseline ([1]; HFD-fed mice) | increase in serum 5-PAHSA levels ([1]; mice on chow (30 mg/kg) and HFD (45 mg/kg), 5 h post gavage) | hydrolysis of 9-PAHSA to 9-HSA [2]
CCCCCCCCCCCCCCCC(=O)OC(CCCCCCCCCCCCC)CCCC(=O)O (centres unmarked) [5-PAHSA] | potentiates glucose-stimulated insulin secretion | had no effect on insulin secretion | augmented the insulin secretion response | induces Glucose Stimulated Insulin Secretion | induces Glucose Stimulated Insulin Secretion | more than restored the levels | 3-5 fold | –
CCCCCCCCCCCCCCCC(=O)OC(CCCCCCCCC)CCCCCCCC(=O)O (centres unmarked) [9-PAHSA, palmitoyl-9-hydroxystearic acid] | – | – | – | – | – | – | – | Substantial 9-HSA production
